± gives the uncertainty stated by the source.
Assay: xn = mol fraction of the nth substance listed

CCCCCCCCCCO + c1ccccc1
viscosity [mPa·s], 100 kPa
Details	x2 = 0.0822	x2 = 0.1563	x2 = 0.2472	x2 = 0.3611	x2 = 0.4531	x2 = 0.5602	x2 = 0.6533	x2 = 0.7528	x2 = 0.8574	x2 = 0.9496
293.15 K	12.2 ± 0.61	10.48 ± 0.53	8.738 ± 0.44	6.833 ± 0.34	5.51 ± 0.28	4.154 ± 0.21	3.087 ± 0.16	2.082 ± 0.11	1.318 ± 0.068	0.839 ± 0.044
303.15 K	8.134 ± 0.41	6.872 ± 0.35	5.555 ± 0.28	4.197 ± 0.21	3.332 ± 0.17	2.5 ± 0.1	1.888 ± 0.096	1.361 ± 0.069	0.925 ± 0.047	0.656 ± 0.034
313.15 K	5.704 ± 0.29	4.746 ± 0.24	3.723 ± 0.19	2.709 ± 0.14	2.089 ± 0.11	1.514 ± 0.077	1.132 ± 0.058	0.877 ± 0.045	0.673 ± 0.034	0.546 ± 0.028
323.15 K	4.088 ± 0.21	3.345 ± 0.17	2.548 ± 0.13	1.757 ± 0.089	1.34 ± 0.07	1.012 ± 0.051	0.796 ± 0.041	0.644 ± 0.033	0.536 ± 0.027	0.461 ± 0.024

OCCOCCOCCO + COCCO
viscosity [mPa·s], 101 kPa
Details	293.15 K	298.15 K	303.15 K
x2 = 0.0555	35.94 ± 0.23	30.26 ± 0.2	26.08 ± 0.17
x2 = 0.1005	32.08 ± 0.21	27.25 ± 0.18	23.69 ± 0.15
x2 = 0.1526	27.98 ± 0.18	24.06 ± 0.16	21.13 ± 0.14
x2 = 0.201	24.53 ± 0.16	21.36 ± 0.14	18.93 ± 0.12
x2 = 0.2544	21.12 ± 0.14	18.65 ± 0.12	16.69 ± 0.11
x2 = 0.3016	18.45 ± 0.12	16.49 ± 0.11	14.87 ± 0.099
x2 = 0.3421	16.37 ± 0.11	14.79 ± 0.099	13.44 ± 0.09
x2 = 0.4006	13.74 ± 0.092	12.58 ± 0.085	11.54 ± 0.078
x2 = 0.4493	11.83 ± 0.08	10.95 ± 0.074	10.13 ± 0.069
x2 = 0.4936	10.3 ± 0.07	9.622 ± 0.066	8.98 ± 0.062
x2 = 0.5499	8.592 ± 0.059	8.124 ± 0.057	7.664 ± 0.054
x2 = 0.6007	7.271 ± 0.051	6.95 ± 0.049	6.621 ± 0.047
x2 = 0.6501	6.157 ± 0.044	5.943 ± 0.043	5.714 ± 0.041
x2 = 0.7042	5.105 ± 0.038	4.973 ± 0.037	4.825 ± 0.036
x2 = 0.7531	4.289 ± 0.032	4.207 ± 0.031	4.115 ± 0.031
x2 = 0.7931	3.714 ± 0.028	3.65 ± 0.027	3.584 ± 0.027
x2 = 0.8455	3.061 ± 0.023	2.991 ± 0.022	2.954 ± 0.022
x2 = 0.9009	2.487 ± 0.019	2.385 ± 0.018	2.346 ± 0.018
x2 = 0.95	2.069 ± 0.016	1.924 ± 0.015	1.856 ± 0.014

CCOC(=O)OCC + Cc1ccc(C)cc1
viscosity [mPa·s]
Details	293.15 K	298.15 K	303.15 K	323.15 K
101 kPa, x1 = 0.0997	0.6494 ± 0.006	0.6068 ± 0.0057	0.5681 ± 0.0053	0.4546 ± 0.0044
101 kPa, x1 = 0.1509	0.6571 ± 0.0061	0.6141 ± 0.0058	0.5733 ± 0.0054	0.4578 ± 0.0045
101 kPa, x1 = 0.2121	0.6663 ± 0.0062	0.6229 ± 0.0059	0.5814 ± 0.0055	0.4633 ± 0.0046
101 kPa, x1 = 0.2979	0.6785 ± 0.0064	0.6347 ± 0.0061	0.5918 ± 0.0057	0.4704 ± 0.0047
101 kPa, x1 = 0.3942	0.693 ± 0.0067	0.6486 ± 0.0064	0.6058 ± 0.0059	0.4794 ± 0.0049
101 kPa, x1 = 0.495	0.7081 ± 0.007	0.6627 ± 0.0066	0.618 ± 0.0062	0.4891 ± 0.0051
101 kPa, x1 = 0.5955	0.7239 ± 0.0073	0.6787 ± 0.007	0.6309 ± 0.0065	0.4973 ± 0.0053
101 kPa, x1 = 0.7004	0.7423 ± 0.0078	0.6948 ± 0.0073	0.6471 ± 0.0068	0.508 ± 0.0055
101 kPa, x1 = 0.8	0.7603 ± 0.0082	0.7126 ± 0.0077	0.6639 ± 0.0072	0.5178 ± 0.0058
101 kPa, x1 = 0.8891	0.7782 ± 0.0086	0.7304 ± 0.0081	0.6786 ± 0.0075	0.5292 ± 0.0061
101.3 kPa, x1 = 0.1027	–	0.607 ± 0.008	–	–
101.3 kPa, x1 = 0.1721	–	0.615 ± 0.008	–	–
101.3 kPa, x1 = 0.2449	–	0.622 ± 0.008	–	–
101.3 kPa, x1 = 0.3566	–	0.636 ± 0.008	–	–
101.3 kPa, x1 = 0.4208	–	0.643 ± 0.008	–	–
101.3 kPa, x1 = 0.4919	–	0.658 ± 0.009	–	–
101.3 kPa, x1 = 0.6427	–	0.68 ± 0.009	–	–
101.3 kPa, x1 = 0.716	–	0.687 ± 0.009	–	–
101.3 kPa, x1 = 0.7162	–	0.687 ± 0.009	–	–
101.3 kPa, x1 = 0.8043	–	0.701 ± 0.009	–	–
101.3 kPa, x1 = 0.9158	–	0.723 ± 0.009	–	–

NC(N)=O + CCCO
viscosity [mPa·s], 101 kPa
Details	298.15 K	303.15 K	308.15 K	313.15 K	318.15 K
x1 = 0.025	2.16 ± 0.055	1.896 ± 0.048	1.691 ± 0.043	1.502 ± 0.038	1.339 ± 0.034
x1 = 0.0385	2.24 ± 0.057	2.003 ± 0.051	1.768 ± 0.045	1.568 ± 0.04	1.401 ± 0.036

Cc1ccc(Cl)cc1 + CCOC(=O)c1ccccc1
viscosity [mPa·s], 101 kPa
Details	303.15 K	313.15 K
x2 = 0.0536	0.745 ± 0.012	0.65 ± 0.011
x2 = 0.1068	0.729 ± 0.012	0.632 ± 0.011
x2 = 0.1858	0.73 ± 0.012	0.629 ± 0.011
x2 = 0.2507	0.751 ± 0.013	0.644 ± 0.011
x2 = 0.3392	0.806 ± 0.013	0.686 ± 0.012
x2 = 0.4157	0.876 ± 0.014	0.739 ± 0.012
x2 = 0.4913	0.959 ± 0.015	0.801 ± 0.013
x2 = 0.592	1.092 ± 0.017	0.904 ± 0.015
x2 = 0.6657	1.201 ± 0.019	0.991 ± 0.016
x2 = 0.762	1.359 ± 0.021	1.109 ± 0.018
x2 = 0.8333	1.484 ± 0.023	1.206 ± 0.019
x2 = 0.907	–	1.315 ± 0.02
x2 = 0.9071	1.623 ± 0.025	–
x2 = 0.9524	1.713 ± 0.026	1.385 ± 0.021

Cc1ccccc1C + COCCO
viscosity [mPa·s], 101 kPa
Details	298.15 K	308.15 K
x2 = 0.0517	0.769 ± 0.013	0.666 ± 0.012
x2 = 0.1491	0.795 ± 0.014	0.686 ± 0.012
x2 = 0.2491	0.83 ± 0.014	0.714 ± 0.013
x2 = 0.3509	0.877 ± 0.015	0.749 ± 0.013
x2 = 0.4485	0.934 ± 0.016	0.79 ± 0.014
x2 = 0.4919	0.963 ± 0.016	0.811 ± 0.014
x2 = 0.5537	1.009 ± 0.017	0.845 ± 0.014
x2 = 0.6432	1.088 ± 0.018	0.901 ± 0.015
x2 = 0.7525	1.206 ± 0.02	0.983 ± 0.017
x2 = 0.8492	1.334 ± 0.022	1.07 ± 0.018
x2 = 0.9547	1.506 ± 0.024	1.185 ± 0.02

Cc1ccccc1C + CC1COC(=O)O1
303.15 K, 101.3 kPa
Details	viscosity [mPa·s]
x2 = 0.1383	0.8178 ± 0.014
x2 = 0.2653	0.9124 ± 0.016
x2 = 0.3824	1.011 ± 0.017
x2 = 0.4906	1.12 ± 0.019
x2 = 0.5909	1.244 ± 0.021
x2 = 0.6842	1.384 ± 0.023
x2 = 0.7712	1.547 ± 0.025
x2 = 0.8525	1.733 ± 0.028
x2 = 0.9286	1.937 ± 0.031

CC(C)[C@@H]1CC[C@@H](C)C[C@H]1O + CCCCCCO
Details	viscosity [mPa·s]
298.15 K, 101.33 kPa, x1 = 0.5	22.95

OCCOCCOCCOCCOCCO + O
viscosity [mPa·s], 100 kPa
Details	293.15 K	298.15 K	303.15 K	308.15 K	313.15 K	318.15 K	323.15 K
x2 = 0.023	70.88 ± 2	54.12 ± 1.2	42.28 ± 0.79	33.63 ± 0.53	27.22 ± 0.37	22.34 ± 0.29	18.57 ± 0.24
x2 = 0.081	72.83 ± 2.1	55.72 ± 1.2	43.21 ± 0.79	34.21 ± 0.53	27.55 ± 0.36	22.56 ± 0.28	18.68 ± 0.23
x2 = 0.144	71.38 ± 2	54.33 ± 1.2	42.28 ± 0.77	33.53 ± 0.52	27.01 ± 0.36	22.11 ± 0.28	18.34 ± 0.23
x2 = 0.166	70.74 ± 2	53.66 ± 1.4	41.76 ± 0.86	33.1 ± 0.55	26.67 ± 0.37	21.83 ± 0.27	18.08 ± 0.21

Cc1ccccc1C + Cc1cccc(C)c1
viscosity [mPa·s], 101.3 kPa
Details	x1 = 0.0817	x1 = 0.1825	x1 = 0.2946	x1 = 0.4285	x1 = 0.5533	x1 = 0.6715	x1 = 0.7904	x1 = 0.9	x1 = 0.9001
298.15 K	0.5998 ± 0.0052	0.6144 ± 0.0052	0.6303 ± 0.0054	0.6512 ± 0.0055	0.6731 ± 0.0056	0.6924 ± 0.0058	0.7148 ± 0.0059	0.7349 ± 0.006	–
303.15 K	0.5668 ± 0.0049	0.5783 ± 0.005	0.5938 ± 0.0051	0.6119 ± 0.0052	0.631 ± 0.005	0.6486 ± 0.0055	0.6675 ± 0.0056	–	0.6859 ± 0.0057

Cl[Si](Cl)(Cl)Cl + CCOC(C)OCC
viscosity [mPa·s], 101 kPa
Details	303.1 K	313.1 K
x2 = 0.13	0.45 ± 0.019	0.41 ± 0.017
x2 = 0.2026	0.45 ± 0.019	0.413 ± 0.017
x2 = 0.3244	0.459 ± 0.019	0.421 ± 0.018
x2 = 0.4102	0.475 ± 0.02	0.427 ± 0.018
x2 = 0.4927	0.492 ± 0.02	0.442 ± 0.018
x2 = 0.5909	0.515 ± 0.021	0.461 ± 0.019
x2 = 0.6377	0.534 ± 0.022	0.476 ± 0.02
x2 = 0.6703	0.538 ± 0.022	0.484 ± 0.02
x2 = 0.71	0.552 ± 0.023	0.49 ± 0.02
x2 = 0.7457	0.541 ± 0.022	0.481 ± 0.02
x2 = 0.8082	0.52 ± 0.021	0.467 ± 0.019
x2 = 0.8385	0.492 ± 0.02	0.447 ± 0.019
x2 = 0.8813	0.456 ± 0.019	0.41 ± 0.017
x2 = 0.9655	0.416 ± 0.017	0.375 ± 0.016

CC(C)[C@@H]1CC[C@@H](C)C[C@H]1O + CC(O)CCO
Details	viscosity [mPa·s]
298.15 K, 101.33 kPa, x1 = 0.5	140.3

CCn1cc[n+](C)c1.F[B-](F)(F)F + O
Details	viscosity [mPa·s]
293.15 K, 101 kPa, x2 = 0.3047	19.25 ± 1.3

CCCCCCCCCCO + CCCCCCCCO
viscosity [mPa·s], 101.8 kPa
Details	x2 = 0.1199	x2 = 0.3407	x2 = 0.5487	x2 = 0.7394	x2 = 0.918
298.15 K	11.14 ± 0.38	10.21 ± 0.37	9.324 ± 0.36	8.588 ± 0.36	7.888 ± 0.35
308.15 K	7.791 ± 0.37	7.162 ± 0.34	6.608 ± 0.34	6.092 ± 0.34	5.658 ± 0.33
318.15 K	5.571 ± 0.34	5.156 ± 0.33	4.78 ± 0.33	4.438 ± 0.33	4.135 ± 0.32

Source: the CheMixHub viscosity set
